Assay results: US11174299B2, “Peptides and compositions for prevention of cell adhesion and methods of using same” (D[…]., priority 2008, dated 2021)

Legend:
Pseudomonas aeruginosa [1] = test: Prevention of Pseudomonas aeruginosa attachment by synthetic peptides; type: cell-based; settings: for anti adherence activity on P. aeruginosa: FIG. 3
Experimental: The synthetic peptide grZ28C [[…] (SEQ ID NO: 1)] gave approximately 50% prevention of Pseudomonas aeruginosa attachment at three concentrations: 50, 5 and 0.5 μg/ml (FIG. 1). The activity was similar to that of the AbacZ17C, peptide based on the anemone cytotoxin active region. Abac10C, which was used as a negative control peptide, was synthesized based on the N-terminal sequence of Abac17C, without the active residue [[…] (SEQ ID NO: 27)].
For peptide grZ35 cyc, the peptide sequence […] (SEQ ID NO: 6) which represents the extracellular region, residue 259-292, was synthesized with two Cysteines in the C and N termini and S—S bridged. For peptide grZ28C, the peptide sequence […] (SEQ ID NO: 3) which represents the extracellular region, residue 259-284, was synthesized with two Cysteines in C and N termini.

Pseudomonas aeruginosa [2] = test: Growth test on Pseudomonas aeruginosa; type: cell-based; settings: FIG. 2, FIG. 4
[3] = test system: P. aeruginosa strain 6294; test: Bacterial adhesion assay on contact lenses, P. aeruginosa strain 6294; type: cell-based, Pseudomonas aeruginosa; settings: for log inhibition of P. aeruginosa 6294 adhesion: 18 hours; for percentage of inhibition of P. aeruginosa 6294 adhesion: TLF
Experimental: (§1) The peptide APi1775 (gr14Z-BBC2) according to SEQ ID NO: 28 was immobilized onto Etafilcon A™ (Johnson & Johnson Vision Care Inc., Jacksonville, Fla., USA; Base curve: 8.7 mm, Diameter: 14.0 mm) contact lenses. […] The coating (covalently bonding the peptide to the surface of the contact lenses) procedure was performed by activating the surface of the contact lenses with carboxyl-reactive crosslinker reactive groups EDC (1-ethyl-3-(-3-dimethylaminopropyl) carbodiimide hydrochloride, MW 191.70) followed by incubation with APi1775 (gr14Z-BBC2) at 0.1 μM 1.0 μM and 10 μM peptide concentration. Peptide grZ14s-nyCyc-3PEG-Pal soaked (1 μM) contact lenses were used as positive control, this peptide is used for non-covalent coating of contact lenses.
(§2) Antimicrobial activity was determined against P. aeruginosa strain 6294 (isolated from a case of microbial keratitis), P. aeruginosa strong biofilm produces strain 142 (isolated from a case of microbial keratitis) and S. aureus strain 31 (isolated from a case of contact lens-induced peripheral ulcer) following established methods. Briefly, P. aeruginosa and S. aureus were grown overnight in tryptone soya broth (TSB; Oxoid, Basingstoke, UK) and re-suspended in 1/10 TSB and PBS respectively to an OD660 nm of 0.1 (1.0×10^8 colony-forming unit (CFU) per ml). The bacterial cell suspensions were then diluted to […] for adhesion assays. Non-coated control, process control, APi1775 peptide coated and grZ14s-nvCyc-3PEG-Pal soaked lenses were washed in PBS and transferred to 1 ml of bacterial suspension in 24 well tissue culture plates (CELESTAR®, Greiner bio-one, Frickenhausen, Germany), and incubated at 37° C. for 18 hours with shaking (120 rpm). For P. aeruginosa strain 6294, the assay was performed with PBS and tear Like Fluid (TFL), for P. aeruginosa strain 142 the assay was performed with PBS and for S. aureus the assay was performed using 1/10 TSB. Lenses were washed three times following incubation with PBS to remove loosely adhered bacteria, then stirred in a vortex mixer rapidly in 2 ml of fresh PBS containing a small magnetic stirring bar. The resulting slurry was serially diluted and 20 μl was added onto nutrient agar (TSA; Oxoid, Basingstoke, UK) for recovery of cells. After incubation at 37° C. for 18 hours, viable microorganisms were enumerated as CFU for each lens. Measurements were performed in triplicates for at least three occasions.
(§3) Data were analyzed using Microsoft Office Excel and Statistical Package for the Social Sciences software version 23.0 (SPSS, Inc., Chicago, Ill.). The bacterial adhesion data were log10 (x+1) transformed prior to analysis where x is the adherent bacteria CFU/lens. Bacterial adhesion, contact lens surface elemental composition, and contact lens parameters were analysed using an independent 2-sample t-test, and expressed with descriptive statistics. Statistical significance was set at 5%.

[4] = test system: P. aeruginosa strong biofilm producer strain 142; test: Bacterial adhesion assay on contact lenses, P. aeruginosa strong biofilm producer strain 142; type: cell-based, Pseudomonas aeruginosa; settings: PBS (No-TLF)
Experimental: as §1, §2, §3

Murine L929 cells = test: In vitro cytotoxicity of immobilised contact lenses (ISO 10993-5, Trypan Blue); type: cell-based; settings: peptide coated contact lenses (0.1, 1.0, 10.0 μM) on murine L929 monolayer, 24 h
Experimental: Testing in vitro cytotoxicity of APi1775 (gr14Z-BBC2) immobilised contact lenses was performed according to ISO standard 10993-5 standardized procedures. Murine L929 cells were grown to >80% confluency in 24 well tissue culture plates (CELESTAR®, Greiner bio-one, Frickenhausen, Germany) with DMEM cell culture media. The medium was aspirated and replaced with adequate fresh growth medium every 2-3 days. All the test and control contact lenses were washed with sterile PBS prior to the start of the study and then directly placed on the cell monolayer for examination of in vitro cytotoxicity. During this any cytotoxicity of the lenses will disrupt the normal functions of cells beneath and perhaps adjacent to the samples. The samples were incubated overnight at 37° C. with 5% CO2. After 24 hours, cells were stained with vital stain (Trypan Blue; Sigma-Aldrich, St Louis, Mo., USA) and cytotoxicity was assessed using bright field and phase-contrast microscopy. Cytotoxic responses are graded according to a standard key, which quantifies the viability and zonal extent. The samples were used in triplicates.

[5] = Dissolution of peptide in Phosphate Buffer Saline (visual inspection); type: physicochemical
[6] = lens coated with 0.1 μM peptide, PBS
[7] = lens coated with 1.0 μM peptide, PBS
[8] = lens coated with 10.0 μM peptide, PBS
[9] = lens treated with 0.1 μM peptide
[10] = lens treated with 1.0 μM peptide
[11] = lens treated with 10.0 μM peptide

In the case of “CSFSQNKSVHSFDYDWYNVSDQADLKNC (SEQ ID NO: 1) [grZ28C]”, the “anti adherence activity on P. aeruginosa” value (Pseudomonas aeruginosa [1]) is reported as “anti adherence activity”, the “prevention of Pseudomonas aeruginosa attachment” value (Pseudomonas aeruginosa [1]; at three concentrations: 50, 5 and 0.5 μg/ml (FIG. 1)) is reported as “approximately 50%” and the “effect on P. aeruginosa growth” value (Pseudomonas aeruginosa [2]) is reported as “not inhibited”.

In the case of “SFSQNKSVHSFDYDWYNVSDQADLKNQLGDAGYV (SEQ ID NO: 6) [grZ35 cyc]”, the “anti adherence activity on P. aeruginosa” value (Pseudomonas aeruginosa [1]) is reported as “anti adherence activity” and the “effect on P. aeruginosa growth” value (Pseudomonas aeruginosa [2]) is reported as “not inhibited”.

In the case of “SVHSFDYDWYNV (SEQ ID NO: 28) (immobilized on Etafilcon A contact lens) [APi1775]”, the “percentage inhibition of P. aeruginosa 6294 adhesion” value [3, 6] is reported as 77.1%, the “log inhibition of P. aeruginosa 6294 adhesion” value [3, 6] is reported as 0.79 log and the “percentage inhibition of P. aeruginosa 6294 adhesion” value [3, 7] is reported as 77.5%. For the same sequence, the “log inhibition of P. aeruginosa 6294 adhesion” value [3, 7] was 0.83 log, the “percentage inhibition of P. aeruginosa 6294 adhesion” value [3, 8] was 47.7% and the “log inhibition of P. aeruginosa 6294 adhesion” value [3, 8] was 0.29 log. For the same sequence, the “percentage of inhibition of P. aeruginosa 6294 adhesion” value [3, 9] was 31.76%, the “log inhibition of P. aeruginosa 6294 adhesion” value ([3]; lens treated with 0.1 μM peptide, Tear Like Fluid (TLF)) was 0.17 log and the “percentage of inhibition of P. aeruginosa 6294 adhesion” value [3, 10] was 80.40%. For the same sequence, the “log inhibition of P. aeruginosa 6294 adhesion” value ([3]; lens treated with 1.0 μM peptide, Tear Like Fluid (TLF)) was 0.71 log, the “percentage of inhibition of P. aeruginosa 6294 adhesion” value [3, 11] was 96.64% and the “log inhibition of P. aeruginosa 6294 adhesion” value ([3]; lens treated with 10.0 μM peptide, Tear Like Fluid (TLF)) was 1.47 log. For the same sequence, the “inhibition of bacterial adhesion, strain 142” value [4, 9] was 44.73%, the “log inhibition of P. aeruginosa strain 142 adhesion” value [4, 9] was 0.26 log and the “inhibition of bacterial adhesion, strain 142” value [4, 10] was 43.62%. The “log inhibition of P. aeruginosa strain 142 adhesion” value [4, 10] was 0.25 log, the “inhibition of bacterial adhesion, strain 142” value [4, 11] was 77.80% and the “log inhibition of P. aeruginosa strain 142 adhesion” value [4, 11] was 0.65 log. For the same sequence, the “cytotoxicity to mammalian cells in vitro” value (Murine L929 cells) was “not cytotoxic”, the “dissolution in Phosphate Buffer Saline” value ([5]; 0.1 μM, 1.0 μM concentration) was “completely dissolved” and the “dissolution in Phosphate Buffer Saline” value ([5]; 10.0 μM, rotary shaker at 37° C. overnight, visual inspection) was “completely dissolved”.
